This note sets out measurements from ChEMBL document CHEMBL1132888, “4,10-Dihydro-4-oxo-4H-imidazo[1,2-a]indeno[1,2-e]pyrazin-2-carboxylic acid derivatives: highly potent and selective AMPA receptors antagonists with in vivo activity” (Bioorg Med Chem Lett, 2000).

Assay [1] addresses Glutamate receptor ionotropic, kainate. The following applies: oocyte.
For assay [2], the target named is Glutamate receptor ionotropic, AMPA (Rattus norvegicus, UniProt P19490+P19491+P19492+P19493).
Description: Displacement of [3H]AMPA from Ionotropic glutamate receptor AMPA of rat cortical membranes
Assay [3] concerns Mus musculus. As to the kind of experiment: Effective dose of the intraperitoneally administered compound required to protect 50% of DBA/2 mice from tonico-clonic convulsion. It is filed as functional. The conditions noted are these: ip.
Assay [4] has as its system Mus musculus. As to the kind of experiment: Effective dose of the intraperitoneally administered compound required to protect 50% of mice from tonic convulsion caused by maximal electric shock (MES). It is filed as functional. The following applies: ip.
The target of assay [5] is Glutamate NMDA receptor. As to the kind of experiment: Displacement of [3H]DCKA from N-methyl-D-aspartate glutamate receptor of rat cortical membrane.
For assay [6], the system named is Mus musculus. As to the kind of experiment: Compound tested for sound induced convulsions in DBA/2 mice following ip administration; Compound was active. It is filed as functional, organism-based.
Assay [7] deals with Glutamate receptor ionotropic, kainate (Rattus norvegicus) (UniProt P22756+Q01812+P42260+P42264+Q63273). As to the kind of experiment: Inhibitory activity against generation of currents by 50 uM kainate in Xenopus oocytes injected with rat brain mRNA. The class given is functional, cell-based. The following applies: Oocyte.

The source made the active and inactive calls. The calls are words filed in the database; no cut-off is given here.

In the case of `O=C(O)c1cn2c3c(nc(O)c2n1)-c1ccccc1C3`, the half-inhibitory concentration (IC50) in assay [1] was found to be 30 nM; in assay [2], 150 nM. Moreover, the results for the ED50 in assay [3] and in assay [4] were 20 mg/kg and 50 mg/kg, respectively.

For the compound `CCOC(=O)c1cn2c3c(nc(O)c2n1)-c1ccc(NC(=O)NC)cc1C3`, the IC50 in assay [1] was found to be 6 nM; in assay [2], 9 nM; in assay [5] it was 10000 nM. Moreover, the ED50 in assay [3] is > 20 mg/kg; in assay [4] it was > 80 mg/kg.

As to `CN1CCCC12c1ccccc1-c1nc(O)c3nccn3c12` (racemic), the IC50 in assay [1] was found to be 890 nM. In assay [4], this compound registered an ED50 of 17 mg/kg.

On to `CNC(=O)Nc1ccc2c(c1)C(CC(=O)O)c1c-2nc(O)c2nccn12` (racemic), for which the results for the IC50 in assay [1] and in assay [5] were 2 nM and 10000 nM, respectively. For the same compound, the ED50 was found to be 0.9 mg/kg in assay [3] and 1 mg/kg in assay [4].

In turn, `Oc1nc2c(n3ccnc13)Cc1ccccc1-2` had an IC50 in assay [1] of 1800 nM. In assay [4], the 50% effect level (ED50) was put at a dose of 62 mg/kg.

`O=c1[nH]c2cc(-n3ccnc3)c([N+](=O)[O-])cc2[nH]c1=O` [YM-90K] showed an IC50 in assay [1] of 260 nM. The figures for the ED50 in assay [3] and in assay [4] were 15 mg/kg and 12 mg/kg, respectively.

As for `NC(=O)c1cn2c3c(nc(O)c2n1)-c1ccccc1C3`, the IC50 in assay [1] worked out at 1250 nM; in assay [2], 476 nM; in assay [5], 730 nM. The ED50 in assay [4] is > 80 mg/kg.

The compound `O=C(O)[C@@H]1C[C@H]2C[C@@H](CCc3nn[nH]n3)CC[C@H]2CN1` [TEZAMPANEL ANHYDROUS] came in with an IC50 in assay [1] of 230 nM. Further, in assay [4], the ED50 was found to be 4 mg/kg.

With `NS(=O)(=O)c1cccc2c1c([N+](=O)[O-])cc1nc(O)c(O)nc12` [NBQX], the IC50 in assay [5] was > 10000 nM. In addition, the ED50 in assay [3] came to 13 mg/kg; in assay [4], 36 mg/kg.

Take `CCOC(=O)c1cn2c3c(nc(O)c2n1)-c1ccc(F)cc1C3`: half-maximal inhibition in assay [2] (IC50) required 55 nM. For the same compound, the ED50 in assay [4] was > 80 mg/kg.

`Nc1ccc2c(c1)Cc1c-2nc(O)c2nc(C(=O)O)cn12`: the IC50 in assay [1] worked out at 236 nM; in assay [2], 473 nM; in assay [5], 6900 nM. In addition, the ED50 in assay [4] is 80 mg/kg.

`O=C(O)c1cn2c3c(nc(O)c2n1)-c1ccc(F)cc1C3`: the IC50 in assay [1] is 25 nM; in assay [2], 60 nM; in assay [5], 455 nM. The compound also returned an ED50 in assay [4] of 56 mg/kg.

For the compound `CCOC(=O)c1cn2c3c(nc(O)c2n1)-c1ccccc1C3`, the values for the IC50 in assay [1], in assay [2] and in assay [5] were 350 nM, 210 nM and 198 nM, respectively. Besides, the ED50 in assay [3] and in assay [4] was > 80 mg/kg each time.

With `CNC(=O)Nc1ccc2c(c1)Cc1c-2nc(O)c2nc(C(=O)O)cn12`, the figures for the IC50 in assay [2] and in assay [5] were 9 nM and 4330 nM, respectively. For the same compound, the outcome in assay [6] was Active. Besides, the ED50 in assay [3] came out at 0.5 mg/kg; in assay [4] it was 0.7 mg/kg. The Kb in assay [7] stood at 3.92 nM.
